Assay results from patent EP0745599A2, “1-(3-Heterocyclylphenyl)-s-triazine-2,4,6-oxo or thiotrione herbicidal agents” (American Cyanamid Company, priority 1995, dated 1996).

Experiments:
Assay type in all cases: in vivo
Settings in all cases: rated four to five weeks after treatment
CASSIA OBTUSIFOLIA, L. [1] = test: Preemergence herbicidal evaluation, CASOB (Sicklepod); set-up: key to CASOB: visual rating scale 0-9 vs control
Source text: (§1) Results of herbicide evaluation are expressed on a rating scale (0-9). The scale is based upon a visual observation of plant stand, vigor, malformation, size, chlorosis and overall plant appearance as compared with a control.
(§2) The preemergence herbicidal activity of the test compounds of the present invention is exemplified by the following tests in which the seeds of a variety of monocotyledonous and dicotyledonous plants are separately mixed with potting soil and planted on top of approximately one inch of soil in separate pint cups. After planting, the cups are sprayed with the selected aqueous acetone solution containing test compound in sufficient quantity to provide the equivalent of about 0.125 to 0.50 kg per hectare of test compound per cup. The treated cups are then placed on greenhouse benches, watered and cared for in accordance with conventional greenhouse procedures. From four to five weeks after treatment, the tests are terminated and each cup is examined and rated according to the rating system provided in Example 42.

CASSIA OBTUSIFOLIA, L. [2] = test: Postemergence herbicidal evaluation, CASOB (Sicklepod)
Description: (§3) In the tests, seedling plants are grown in jiffy flats for about two weeks. The test compounds are dispersed in 50/50 acetone/water mixtures containing 0.5% TWEEN®20, a polyoxyethylene sorbitan monolaurate surfactant of Atlas Chemical Industries, in sufficient quantities to provide the equivalent of about 0.125 kg to 0.500 kg per hectare of active compound when applied to the plants through a spray nozzle operating at 40 psi for a predetermined time. After spraying, the plants are placed on greenhouse benches and are cared for in the usual manner, commensurate with conventional greenhouse practices. From four to five weeks after treatment, the seedling plants are examined and rated according to the rating system set forth below. Where more than one test is involved for a given compound, the data are averaged.
as §1

[3] = system: SETARIA VIRIDIS, (L) BEAU; test: Preemergence herbicidal evaluation, SETVI (Foxtail, Green); set-up: key to SETVI: visual rating scale 0-9 vs control
Source text: as §1, §2

GALIUM APARINE = test: Preemergence herbicidal evaluation, GALAP (Galium); set-up: key to GALAP: visual rating scale 0-9 vs control
Source text: as §1, §2

CHENOPODIUM ALBUM, L. = test: Preemergence herbicidal evaluation, CHEAL (Lambsquarters, Common); set-up: key to CHEAL: visual rating scale 0-9 vs control
Source text: as §1, §2

[4] = system: ECHINOCHLOA CRUS-GALLI, (L) BEAU; test: Preemergence herbicidal evaluation, ECHCG (Barnyardgrass); set-up: key to ECHCG: visual rating scale 0-9 vs control
Source text: as §1, §2

[5] = system: SETARIA VIRIDIS, (L) BEAU; test: Postemergence herbicidal evaluation, SETVI (Foxtail, Green)
Description: as §3, §1

[6] = system: AMBROSIA ARTEMISIIFOLIA, L.; test: Preemergence herbicidal evaluation, AMBEL (Ragweed, Common); set-up: key to AMBEL: visual rating scale 0-9 vs control
Source text: as §1, §2

[7] = system: TRITICUM AESTIVUM, CV. APOLLO; test: Preemergence herbicidal evaluation, TRZAWO (Wheat, Winter, CV. APOLLO); set-up: key to TRZAWO: visual rating scale 0-9 vs control
Source text: as §1, §2

[8] = system: ECHINOCHLOA CRUS-GALLI, (L) BEAU; test: Postemergence herbicidal evaluation, ECHCG (Barnyardgrass)
Description: as §3, §1

[9] = system: TRITICUM AESTIVUM, CV. APOLLO; test: Postemergence herbicidal evaluation, TRZAWO (Wheat, Winter, CV. APOLLO)
Description: as §3, §1

[10] = system: ABUTILON THEOPHRASTI, MEDIC.; test: Preemergence herbicidal evaluation, ABUTH (Velvetleaf); set-up: key to ABUTH: visual rating scale 0-9 vs control
Source text: as §1, §2

[11] = system: GLYCINE MAX(L)MERR. CV. WILLIAMS; test: Preemergence herbicidal evaluation, GLXMAW (Soybean, Williams); set-up: key to GLXMAW: visual rating scale 0-9 vs control
Source text: as §1, §2

IPOMOEA SPP. = test: Preemergence herbicidal evaluation, IPOSS (Morningglory Spp.); set-up: key to IPOSS: visual rating scale 0-9 vs control
Source text: as §1, §2

ZEA MAYS L. = test: Preemergence herbicidal evaluation, ZEAMX (Corn, Field); set-up: key to ZEAMX: visual rating scale 0-9 vs control
Source text: as §1, §2

[12] = system: ORYZA SATIVA, L. TEBONNET; test: Preemergence herbicidal evaluation, ORYSAT (Rice, Tebonnet); set-up: key to ORYSAT: visual rating scale 0-9 vs control
Source text: as §1, §2

[13] = system: ORYZA SATIVA, L. TEBONNET; test: Postemergence herbicidal evaluation, ORYSAT (Rice, Tebonnet)
Description: as §3, §1

For `CC(C)OC(=O)Cn1c(=O)n(C)c(=O)n(-c2cc(N3C(=O)C4C[S+]([O-])CCN4C3=O)c(F)cc2Cl)c1=O` (stereo not drawn) [Compound 14, Isopropyl 3-[2-chloro-4-fluoro-5-(tetra-hydro-1,3,7-trioxo-1H-imidazo[5,1-c][1,4]-thiazin-2(3H)-yl)phenyl]tetrahydro-5-methyl-2,4,6-trioxo-s-triazine-1(2H)-acetate], the CASOB (CASSIA OBTUSIFOLIA, L. [1]; Rate 0.125 kg/ha) was 2.0, the CASOB (CASSIA OBTUSIFOLIA, L. [1]; Rate 0.250 kg/ha) was 2.0 and the CASOB (CASSIA OBTUSIFOLIA, L. [1]; Rate 0.500 kg/ha) was 4.0. For the same molecule, the “Herbicide rating (0-9) CASOB” value (CASSIA OBTUSIFOLIA, L. [2]; 0.125 kg/ha) was 5.0, the “Herbicide rating (0-9) CASOB” value (CASSIA OBTUSIFOLIA, L. [2]; 0.250 kg/ha) was 5.0 and the “Herbicide rating (0-9) CASOB” value (CASSIA OBTUSIFOLIA, L. [2]; 0.500 kg/ha) was 5.0. It also gave an SETVI ([3]; Rate 0.125 kg/ha) of 0.0, an SETVI ([3]; Rate 0.250 kg/ha) of 0.0 and an SETVI ([3]; Rate 0.500 kg/ha) of 1.0. It also gave a GALAP (GALIUM APARINE; Rate 0.125 kg/ha) of 7.0, a GALAP (GALIUM APARINE; Rate 0.250 kg/ha) of 7.0 and a GALAP (GALIUM APARINE; Rate 0.500 kg/ha) of 9.0. The CHEAL (CHENOPODIUM ALBUM, L.; Rate 0.125 kg/ha) was 7.0, the CHEAL (CHENOPODIUM ALBUM, L.; Rate 0.250 kg/ha) was 6.0 and the CHEAL (CHENOPODIUM ALBUM, L.; Rate 0.500 kg/ha) was 9.0. It also gave an ECHCG ([4]; Rate 0.125 kg/ha) of 0.0, an ECHCG ([4]; Rate 0.250 kg/ha) of 0.0 and an ECHCG ([4]; Rate 0.500 kg/ha) of 0.0. The “Herbicide rating (0-9) SETVI” value ([5]; 0.125 kg/ha) was 1.0, the “Herbicide rating (0-9) SETVI” value ([5]; 0.250 kg/ha) was 1.0 and the “Herbicide rating (0-9) SETVI” value ([5]; 0.500 kg/ha) was 1.0. It also gave an AMBEL ([6]; Rate 0.125 kg/ha) of 0.0, an AMBEL ([6]; Rate 0.250 kg/ha) of 2.0 and an AMBEL ([6]; Rate 0.500 kg/ha) of 3.0. The TRZAWO ([7]; Rate 0.125 kg/ha) was 0.0, the TRZAWO ([7]; Rate 0.250 kg/ha) was 1.0 and the TRZAWO ([7]; Rate 0.500 kg/ha) was 2.0. For the same molecule, the “Herbicide rating (0-9) ECHCG” value ([8]; 0.125 kg/ha) was 0.0, the “Herbicide rating (0-9) ECHCG” value ([8]; 0.250 kg/ha) was 0.0 and the “Herbicide rating (0-9) ECHCG” value ([8]; 0.500 kg/ha) was 0.0. For the same molecule, the “Herbicide rating (0-9) TRZAWO” value ([9]; 0.125 kg/ha) was 2.0, the “Herbicide rating (0-9) TRZAWO” value ([9]; 0.250 kg/ha) was 2.0 and the “Herbicide rating (0-9) TRZAWO” value ([9]; 0.500 kg/ha) was 2.0. The ABUTH ([10]; Rate 0.125 kg/ha) was 0.0, the ABUTH ([10]; Rate 0.250 kg/ha) was 0.0 and the ABUTH ([10]; Rate 0.500 kg/ha) was 4.0. It also gave a GLXMAW ([11]; Rate 0.125 kg/ha) of 0.0, a GLXMAW ([11]; Rate 0.250 kg/ha) of 0.0 and a GLXMAW ([11]; Rate 0.500 kg/ha) of 0.0. The IPOSS (IPOMOEA SPP.; Rate 0.125 kg/ha) was 0.0, the IPOSS (IPOMOEA SPP.; Rate 0.250 kg/ha) was 1.0 and the IPOSS (IPOMOEA SPP.; Rate 0.500 kg/ha) was 3.0. The ZEAMX (ZEA MAYS L.; Rate 0.125 kg/ha) was 0.0, the ZEAMX (ZEA MAYS L.; Rate 0.250 kg/ha) was 0.0 and the ZEAMX (ZEA MAYS L.; Rate 0.500 kg/ha) was 1.0. It also gave an ORYSAT ([12]; Rate 0.125 kg/ha) of 0.0, an ORYSAT ([12]; Rate 0.250 kg/ha) of 2.0 and an ORYSAT ([12]; Rate 0.500 kg/ha) of 4.0.

`C#CCn1c(=O)n(CC=C)c(=O)n(-c2cc(N3C(=O)C4=C(CCCC4)C3=O)c(F)cc2Cl)c1=O` [Compound 20, N-{5-[3-Allylhexahydro-2,4,6-trioxo-5-(2-propynyl)-s-triazin-1-yl]-4-chloro-2-fluoro-phenyl}-1-cyclohexene-1,2-dicarboximide] was tested, and the “Herbicide rating (0-9) ORYSAT” value ([13]; 0.125 kg/ha) was 2.0, the “Herbicide rating (0-9) ORYSAT” value ([13]; 0.250 kg/ha) was 2.0 and the “Herbicide rating (0-9) ORYSAT” value ([13]; 0.500 kg/ha) was 2.0. The “Herbicide rating (0-9) SETVI” value ([5]; 0.125 kg/ha) was 0.0, the “Herbicide rating (0-9) SETVI” value ([5]; 0.250 kg/ha) was 0.0 and the “Herbicide rating (0-9) SETVI” value ([5]; 0.500 kg/ha) was 0.0. The “Herbicide rating (0-9) ECHCG” value ([8]; 0.125 kg/ha) was 0.0, the “Herbicide rating (0-9) ECHCG” value ([8]; 0.250 kg/ha) was 0.0 and the “Herbicide rating (0-9) ECHCG” value ([8]; 0.500 kg/ha) was 0.0.
